Patent publication US12364686B2, “Sphingosine 1 phosphate receptor modulators” (RECEPTOS LLC, priority 2020, dated 2025)
Read-outs that look alike come from different tables or passages of the source.

Tests used:
[1] = molecular target: S1P1 (Homo sapiens, UniProt P21453); assay: [35S]-GTPγS binding assay, S1P1; type: biochemical; settings: for Emax: control S1P, read-out: S1P1 % Efficacy
Protocol: (§1) Cell Membrane Preparations
(§2) CHO cells expressing recombinant S1P receptors were cultured 500 cm^2 culture trays and once confluent, rinsed and detached with cell-lifting buffer (10 mM HEPES, 154 mM NaCl, 6.85 mM EDTA, pH 7.4). Cells were then pelleted by centrifugation, resuspended, and homogenized in membrane preparation buffer (10 mM HEPES and 10 mM EDTA, pH 7.4) using a Polytron PT 1200E homogenizer (Kinematica, Luzern, Switzerland). Cellular proteins were pelleted by centrifugation at 48,000×g at 4° C. for 30 minutes. The resulting supernatant was discarded, and the pellet was re-suspended again in membrane preparation buffer, homogenized for a second time and then centrifuged again as described above. The final cellular protein pellet was suspended in ice cold resuspension buffer (10 mM HEPES and 0.1 mM EDTA, pH 7.4), divided into aliquots, and stored at −80° C. until use.
(§3) Binding assays for [^35S]-GTPγS were performed in 96-well non-binding surface plates with a final volume of 200 μL. The test compounds were serial diluted in DMSO and added to assay plates using a Tecan D300E digital printer with a total volume of 0.4 μL. The control sphingosine-1-phosphate (S1P) was prepared separately by preparing a 400 μM stock solution from a 100 nmol pellet of S1P in 10 mM Na2CO3 with 2% β-cyclodextrin. The serial dilution of S1P was done using complete assay buffer (20 mM HEPES, 10 mM MgCl2, 100 mM NaCl, 1 mM EDTA, 0.1% fatty acid free bovine serum albumin [BSA], and 30 μg/mL saponin, pH7.4) and transferred to wells already containing 0.4 μL DMSO. All the wells were then loaded to a total volume of 40 μL of complete assay buffer, except the non-specific binding (NSB) wells. For NSB wells, 40 µL/well of 50 μM GTPγS (Sigma Aldrich, cat #G8634, St. Louis, MO) was added to wells containing 0.4 μL of DMSO. The assay was started by the addition of 120 μL/well of CHO—S1P receptor membrane solution containing 40 μg/mL of membrane protein, 16.67 μM guanosine diphosphate (GDP; Sigma Aldrich, cat #G7127, St. Louis, MO), and 2.5 mg/mL of WGA PVT SPA beads in complete buffer. Assay plates were then sealed and incubated at room temperature with gentle agitation for 30 minutes. Next, 40 μL/well of 1 nM of [^35S]-GTPγS (PerkinElmer, cat #NEG030X250UC, Waltham, MA) in basic assay buffer (20 mM HEPES, 10 mM MgCl2, 100 mM NaCl, and 1 mM EDTA, pH7.4) was added to the assay plates to yield a final concentration of […] and the plates were further incubated for 40 minutes at room temperature with gentle agitation. The assay was terminated by centrifugation of the plates at 1000 rpm for 3 minutes using an Eppendorf 5810R centrifuge (Eppendorf, Hamburg, Germany) and G protein bound radioactivity was quantitated using a MicroBeta2 microplate scintillation counter (PerkinElmer, Waltham, MA).

[2] = molecular target: S1P5 (Homo sapiens, UniProt Q9H228); assay: [35S]-GTPγS binding assay, S1P5; type: biochemical; settings: membranes of CHO cells expressing recombinant S1P receptors; for Emax: control S1P, read-out: S1P5 % Efficacy
Chain of S1P5 (Q9H228 whole entry, species assumed): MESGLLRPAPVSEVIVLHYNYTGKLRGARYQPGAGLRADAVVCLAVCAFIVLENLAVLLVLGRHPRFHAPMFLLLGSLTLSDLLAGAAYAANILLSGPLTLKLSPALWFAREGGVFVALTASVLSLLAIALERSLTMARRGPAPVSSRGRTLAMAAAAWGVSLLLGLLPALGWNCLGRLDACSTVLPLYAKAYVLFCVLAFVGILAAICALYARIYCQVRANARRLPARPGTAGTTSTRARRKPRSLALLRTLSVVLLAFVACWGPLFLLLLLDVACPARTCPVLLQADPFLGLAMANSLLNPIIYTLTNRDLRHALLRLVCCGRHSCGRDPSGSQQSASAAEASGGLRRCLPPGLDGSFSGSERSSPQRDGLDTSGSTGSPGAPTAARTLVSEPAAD
Protocol: as §1, §2, §3

[3] = membranes of CHO cells expressing recombinant S1P receptors, [35S]-GTPγS binding
[4] = membranes of CHO cells expressing recombinant S1P receptors, [35S]-GTPγS binding, read-out: S1P1 EC50

Chain of S1P1 (P21453 whole entry, species assumed): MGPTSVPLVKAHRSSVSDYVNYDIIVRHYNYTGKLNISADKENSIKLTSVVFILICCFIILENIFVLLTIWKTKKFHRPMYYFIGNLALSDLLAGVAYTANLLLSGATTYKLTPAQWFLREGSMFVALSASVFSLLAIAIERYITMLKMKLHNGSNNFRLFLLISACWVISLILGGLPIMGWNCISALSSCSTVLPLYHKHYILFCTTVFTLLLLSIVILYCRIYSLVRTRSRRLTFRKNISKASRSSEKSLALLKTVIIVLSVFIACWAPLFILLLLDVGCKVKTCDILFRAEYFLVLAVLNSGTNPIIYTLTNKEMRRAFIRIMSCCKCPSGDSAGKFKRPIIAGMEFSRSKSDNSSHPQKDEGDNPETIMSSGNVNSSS

Row | Structure (SMILES) | Emax [1, 3] | EC50 [1, 4] | EC50 [2] | Emax [2] | EC50 [1]
1 | CC(C)Oc1ccc(-c2nc(-c3cccc4c3CCC4=NOCCC(=O)O)no2)cc1C#N (stereo in doubt) [Compound 7, (E)-3-(((4-(5-(3-cyano-4-isopropoxyphenyl)-1,2,4-oxadiazol-3-yl)-2,3-dihydro-1H-inden-1-ylidene)amino)oxy)propanoic acid] | 89% | 336 nM | 30 nM | 29% | –
2 | CC(C)Oc1ccc(-c2nc(-c3cccc4c3CC/C4=N/OC(C)(C)C)no2)cc1C#N [Compound 5, (Z)-5-(3-(1-(tert-butoxyimino)-2,3-dihydro-1H-inden-4-yl)-1,2,4-oxadiazol-5-yl)-2-isopropoxybenzonitrile] | 98% | 20 nM | 78 nM | 79% | –
3 | CC(C)Oc1ccc(-c2nc(-c3cccc4c3CC/C4=N/OCC(=O)O)no2)cc1C#N [Compound 6, (Z)-2-(((4-(5-(3-cyano-4-isopropoxyphenyl)-1,2,4-oxadiazol-3-yl)-2,3-dihydro-1H-inden-1-ylidene)amino)oxy)acetic acid] | 90% | – | > 2000 nM | – | 19 nM
4 | CC(C)Oc1ccc(-c2nc(-c3cccc4c3CC/C4=N/OCCN(C)C)no2)cc1C#N [Compound 8] | 90% | 8 nM | 15 nM | 64% | –
5 | CC(C)Oc1ccc(-c2nc(-c3cccc4c3CC/C4=N/O)no2)cc1C#N [Compound 10, (Z)-5-(3-(1-(hydroxyimino)-2,3-dihydro-1H-inden-4-yl)-1,2,4-oxadiazol-5-yl)-2-isopropoxybenzonitrile] | 97% | 4 nM | 6 nM | 58% | –
6 | CC(C)Oc1ccc(-c2nc(-c3cccc4c3CC/C4=N/OCCCC(=O)O)no2)cc1C#N [Compound 11, (Z)-4-(((4-(5-(3-cyano-4-isopropoxyphenyl)-1,2,4-oxadiazol-3-yl)-2,3-dihydro-1H-inden-1-ylidene)amino)oxy)butanoic acid] | 85% | 6 nM | 80 nM | 85% | –
